According to patent publication US9717790B2, “Sphingoglycolipid analogues” (Victoria Link Limited, priority 2013, dated 2017):
“Also recorded” adds a separate entry of the source.

Columns and labels:
[1] = test system: cytokines IL-12p70, IL-4 and IFN-γ; assay: Analysis of cytokine release into serum; assay type: in vivo, C57BL/6 mice; details: for ratio of cytokines IFN-γ/IL-4: 0.23 nmol intravenously, blood at 18 h (IFN-γ) and 3 h (IL-4), compared to α-GalCer
Protocol: Groups of C57BL/6 mice (n=3) are injected intravenously with 0.23 nmol of the indicated compounds.
Each compound of the invention is supplied as formulated product (see example 3), and diluted in water for delivery (0.23 nmol/mouse) by intravenous injection into the lateral tail vein. In humans the expected therapeutic dose lies in the 50-4800 (μg/m^2) range (Giaccone, Punt et al. 2002). Note, 0.23 nmol in a mouse is a human equivalent dose of 30 μg/m^2 for α-GalCer.
Blood is collected from the lateral tail vein at different time intervals after glycolipid administration. Serum is collected after blood has clotted, and levels of cytokines IL-12p70, IL-4 and IFN-γ are assessed by cytokine bead array technology (Biolpex, Biorad), according to the manufacturer's instructions.

[2] = test system: B16.OVA melanoma; assay: Analysis of anti-tumour activity, B16.OVA melanoma challenge; assay type: in vivo, C57BL/6 mice
Protocol: Groups of C57BL/6 mice (n=5) are injected with 1×10^5 live B16.OVA tumour cells subcutaneously on day 0. On day 6 0.23 nmol of the indicated compounds (α-GalCer or CN161) mixed with OVA protein (200 μg) are administered intraveneously. The tumour size is monitored regularly with calipers until the first animal in each group reached 200 mm^2, at which point the whole group is culled.
Control animals are injected with the long peptide alone, α-GalCer alone, or left untreated. The mean tumour sizes per group (n=5)±SEM are shown.
Groups of C57BL/6 mice (n=5) receive a subcutaneous injection into the flank of 1×10^5 B16.OVA melanoma cells, which express a cDNA encoding the chicken ovalbumin (OVA) sequence. The different groups are treated 7 days later, when tumours are fully engrafted, by intravenous injection of one of the following; vaccines as indicated in text and figure legends. Mice are monitored for tumour growth every 3-4 days, and tumour size for each group is calculated as the mean of the products of bisecting diameters (+SEM). Measurements are terminated for each group when the first animal develops a tumour exceeding […].

[3] = test system: human NKT cells; assay: Proliferation of human NKT cells in PBMC culture; assay type: cell-based; details: PBMC from one donor, 7 days culture with IL-2
Protocol: Peripheral blood mononuclear cells from one donor are cultured for 7 days with different doses of the indicated compounds in the presence of IL-2, and then the percentages of NKT cells in the final cultures determined by flow cytometry with fluorescent α-GalCer-loaded CD1d tetramers and anti-CD3. Data are expressed as percentage of NKT cells (α-GalCer/CD1d tetramer and anti-CD3-binding cells) of total T cells (all anti-CD3-binding cells).
Peripheral blood is drawn into heparinized tubes, diluted 1:1 in PBS, and layered over a sodium diatrizoate and polysaccharide solution (Lymphoprep; Axis-Shield, Oslo, Norway) before centrifugation at 800×g for 25 minutes at room temperature to collect the peripheral blood mononuclear cell (PBMC) fraction, which contains NKT cells. To assess proliferation of NKT cells, PBMC (2×10^5 per well) are cultured at 37° C. in Iscove's Modified Dulbecco's Medium with 5% human AB serum and the indicated concentrations of α-GalCer, or CN161, with recombinant human IL-2 50 U/mL (Chiron Corporation, Emeryville, Calif.) added after 24 hours. After 7 days of culture, the cells are analysed by flow cytometry, using fluorescent soluble CD1d tetramers that have been loaded with α-GalCer to identify the NKT cells. […]

[4] = test system: C1498 acute leukemia cells; assay: Analysis of anti-leukemia activity, C1498 challenge; assay type: in vivo, mice
Protocol: The prophylactic vaccines consist of irradiated C1498 cells that are incubated with compounds of the invention for 24 h. Control animals are injected with irradiated C1498 cells alone, compound alone, or left untreated. The time to onset of leukemia-associated symptoms are shown. (A) Analysis of vaccines incorporating CN161. (B) Analysis of vaccines incorporating α-GalCer.
To generate cell-based vaccines, C1498 acute leukemia cells are cultured for 24 h in complete IMDM supplemented with 200 ng/ml of α-GalCer or 200 ng/ml CN161, washed three times with PBS, and γ-irradiated (150 Gy). Vaccines comprising of 7.5×10^5 cells are administered intravenously via the lateral tail vein. Mice are monitored for onset of leukemia-associated symptoms, such as weight loss, hunching or reduced grooming. All experiments are conducted with five animals per treatment group, with controls including a leukemia-only group.

[5] = test system: SVYDFFVWL-loaded targets; assay: In vivo cytotoxic capacity of TRP-2 specific T cells after vaccination; details: 0.23 nmol compound with long TRP-2 peptide (0.57 nmol) intravenously; targets injected 7 days after vaccination
Protocol: Control animals are injected with the long peptide alone, or α-GalCer alone. […] To discriminate the targets from host tissue, the injected cells are labelled with the fluorescent dye carboxyfluorescein succinimidyl ester (CFSE). A cohort of syngeneic splenocytes (without peptide) labelled with the fluorescent dye cell tracker orange are also injected to serve as controls. Killing is defined as the percentage of peptide-loaded targets killed relative to control cells. Each treatment group contained 5 animals with mean percentage of killing per group±SEM shown.

[6] = cited from earlier work
[7] = in vivo; cited from earlier work
[8] = cell-based vaccine: irradiated C1498 cells incubated with compound (200 ng/ml) for 24 h, intravenously

SMILES | ratio of cytokines IFN-γ/IL-4 [1] | antitumour activity against B16.OVA melanoma (tumour growth) ([2]; 0.23 nmol compound with long TRP2 peptide (0.57 nmol) intravenously) | antitumour activity against B16.OVA melanoma ([2]; compound with long OVA peptide KISQAVHAAHAEINEAGRESIINFEKLTEWT intravenously) | vaccine adjuvant activity, progression of B16.OVA melanoma ([2]; therapeutic challenge, 0.23 nmol compound mixed with OVA protein (200 μg) intravenously) | proliferation of iNKT cells (percentage of NKT cells of total T cells) [3] | anti-leukemia activity (time to onset of leukemia-associated symptoms) [4, 8] | anti-leukemia activity (time to onset of leukemia-associated symptoms) ([4]; compound injected alone) | cytotoxic response (killing of peptide-loaded targets) [5] | solubility [6] | time of peak IFN-γ level in the serum ([1]; after injection) [h] | time of peak IL-12p70 level in the serum ([1]; after injection) [h] | time of peak production of IL-4 in the serum ([1]; after injection) [h] | efficacy in human clinical trials [7]
CCCCCCCCCCCCCCCCCCCCCCCCCC(=O)N[C@@H](CO[C@H]1O[C@@H]2CO[C@@H]2[C@H](O)[C@H]1O)[C@H](O)[C@H](O)CCCCCCCCCCCCCC [CN154, (2S,3S,4R)-1-(4,6-Anhydro-α-D-galactopyranosyloxy)-2-hexacosanoylamino-3,4-octadecandiol] | higher ratio of IFN-γ/IL-4 |  |  |  |  |  |  |  |  |  |  |  | 
CCCCCCCCCCCCCCCCCCCCCCCCCC(=O)N[C@@H](C[C@]1(O)O[C@H](CSSC[C@H]2O[C@@](O)(C[C@H](NC(=O)CCCCCCCCCCCCCCCCCCCCCCCCC)[C@H](O)[C@H](O)CCCCCCCCCCCCCC)[C@H](O)[C@@H](O)[C@H]2O)[C@H](O)[C@H](O)[C@H]1O)[C@H](O)[C@H](O)CCCCCCCCCCCCCC [CN161, 6,6′-Disulfanediylbis[6-deoxy-1-((2S,3S,4R)-3,4-dihydroxy-2-(hexacosanoylamino)octadecyl)-α-D-galactopyranose]] | higher ratio of IFN-γ/IL-4 | delayed tumour growth; also recorded: anti-tumour activity | equivalent anti-tumour activity | potent vaccine adjuvant activity | able to induce the proliferation of iNKT cells | anti-leukemia activity; also recorded: significant protection | anti-leukemia activity; also recorded: can provide protection | potent antigen-specific cytotoxicity; also recorded: greater cytotoxic response |  |  |  |  | 
CCCCCCCCCCCCCCCCCCCCCCCCCC(=O)N[C@@H](CO[C@H]1O[C@H](CO)[C@H](O)[C@H](O)[C@H]1O)[C@H](O)[C@H](O)CCCCCCCCCCCCCC [α-GalCer, α-Galactosylceramide] |  |  |  |  |  | significant protection | not active and not |  | poor solubility | > 12 | 6 | 2 to 3 | lack of efficacy
